# Data published in patent US4263325A, “β-Receptor blocking compounds and treatment of cardiovascular disorders therewith” (priority 1979, dated 1981).
# Tests used:
# cardiac β-receptors [1] = target: T1, cardiac β-receptors (Felis catus, UniProt Q9TST6); experiment: β-blockade of isoprenaline heart rate response, reserpinized anaesthetized cat; format: in vivo; details: iv, i.v. test compound, isoproterenol 0.1 μg/kg i.v., dose reducing response to 50 percent
# T1 construct: All compounds were thereby tested in anaeshtetized cats; from tissue; host or cells: heart of the living, reserpinized, anaesthetized cat
# T1 sequence (Q9TST6 whole entry): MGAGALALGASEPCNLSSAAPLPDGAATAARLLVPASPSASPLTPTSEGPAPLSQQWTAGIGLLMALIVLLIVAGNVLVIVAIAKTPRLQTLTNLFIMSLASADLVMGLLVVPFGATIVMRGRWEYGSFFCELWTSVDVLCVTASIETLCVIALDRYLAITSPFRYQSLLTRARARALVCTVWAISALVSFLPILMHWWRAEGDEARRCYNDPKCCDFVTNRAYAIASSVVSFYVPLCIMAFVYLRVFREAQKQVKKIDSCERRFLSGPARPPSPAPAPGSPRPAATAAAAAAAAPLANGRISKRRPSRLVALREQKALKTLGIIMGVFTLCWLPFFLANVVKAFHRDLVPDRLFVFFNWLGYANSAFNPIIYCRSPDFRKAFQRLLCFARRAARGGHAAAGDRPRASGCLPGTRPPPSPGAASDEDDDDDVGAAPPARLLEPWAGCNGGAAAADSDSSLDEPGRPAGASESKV
# Description: (§1) The agents of the present invention were tested as regards their biological properties. All compounds were thereby tested in anaeshtetized cats (males and females weighing 2.5-3.5 kg) pretreated with reserpine (5 mg/kg body-weight administered intramusculary) about 16 hours before the experiments. The animals were pretreated with reserpine in order to eliminate the endogenous sympathetic control of heart rate and vascular smooth muscle tone. The cats were anaesthetized with pentobarbital (30 mg/kg bodyweight administered i.p. ) and artificially ventilated with room air. A bilateral vagotomy was performed in the neck. Blood pressure was obtained from a cannulated carotid artery and heart rate was registered from a cardiotachometer, triggered by the electrocardiogram (ECG). Vascular resistance in one hind leg was recorded by an autoperfusion technique. Intrinsic beta mimetic activity on the heart was seen as increased heart rate after drug administration. The test compounds were given intravenously in logarithmically increasing doses. Before the first dose and between each of the following doses (0.012-51.2 μmol/kg) of the test compound a dose of isoproterenol (0.1 μg/kg) was injected intravenously. Blockade of the heart rate and vascular resistance response to isoproterenol was calculated for each dose and expressed as percent decrease of the response obtained when isoproterenol was injected before any dose of the test compound. Percent blockade was then plotted against the logarithm of the dose. ED50 values i.e. doses producing a reduction of the original response to isoproterenol to 50 percent were estimated from these dose-response curves. At the end of each experiment high doses of isoprenaline were given in order to obtain the maximal heart rate response.
# vascular β-receptors = target: T2, vascular β-receptors (Felis catus, UniProt Q9TST5); experiment: β-blockade of isoprenaline peripheral (vascular) resistance response, reserpinized anaesthetized cat, autoperfused hind leg; format: in vivo; details: iv, i.v. test compound, isoproterenol 0.1 μg/kg i.v., dose reducing response to 50 percent
# T2 construct: All compounds were thereby tested in anaeshtetized cats; from tissue; host or cells: hind-leg vasculature of the living, reserpinized, anaesthetized cat (autoperfused)
# T2 sequence (Q9TST5 whole entry, the tested form may be a part): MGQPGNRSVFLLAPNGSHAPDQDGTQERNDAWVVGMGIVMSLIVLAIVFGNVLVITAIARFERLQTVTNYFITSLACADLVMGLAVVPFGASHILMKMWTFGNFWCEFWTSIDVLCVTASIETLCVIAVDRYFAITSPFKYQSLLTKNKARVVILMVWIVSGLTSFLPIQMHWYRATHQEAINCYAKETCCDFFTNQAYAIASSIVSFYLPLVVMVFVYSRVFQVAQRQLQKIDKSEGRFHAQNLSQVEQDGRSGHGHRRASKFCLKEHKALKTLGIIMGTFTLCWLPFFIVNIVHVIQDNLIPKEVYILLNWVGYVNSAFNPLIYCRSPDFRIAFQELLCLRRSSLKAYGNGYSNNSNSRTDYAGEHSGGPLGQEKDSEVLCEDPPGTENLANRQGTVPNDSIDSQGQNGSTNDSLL
# Description: as §1
# α-receptors = target: T3, α-receptors (Rattus norvegicus, UniProt P43140); experiment: α-receptor blocking activity in isolated rat vas deferens (inhibition of noradrenaline contraction); details: noradrenaline as agonist, high pA2 = high α-receptor blocking activity
# T3 construct: from tissue; host or cells: isolated rat vas deferens
# T3 sequence (P43140 1-466): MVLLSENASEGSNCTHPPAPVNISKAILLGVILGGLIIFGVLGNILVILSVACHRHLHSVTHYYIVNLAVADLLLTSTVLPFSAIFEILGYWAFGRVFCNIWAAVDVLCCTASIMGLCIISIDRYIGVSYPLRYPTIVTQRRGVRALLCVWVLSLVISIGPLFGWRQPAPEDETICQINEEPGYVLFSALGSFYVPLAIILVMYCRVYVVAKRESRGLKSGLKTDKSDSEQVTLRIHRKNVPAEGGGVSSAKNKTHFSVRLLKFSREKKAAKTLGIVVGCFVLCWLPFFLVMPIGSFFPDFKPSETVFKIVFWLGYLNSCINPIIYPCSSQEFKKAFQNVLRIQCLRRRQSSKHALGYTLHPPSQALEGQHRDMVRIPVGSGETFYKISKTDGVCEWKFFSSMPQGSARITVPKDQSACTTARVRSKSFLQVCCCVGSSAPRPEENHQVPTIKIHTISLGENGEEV
# Description: α-receptor blocking activity was tested in isolated rat vas deferens. Noradrenaline administered to the organ bath induces a contraction in vas deferens by activating α-receptors. The ability of the test compounds to inhibit this noradrenaline response was studied. The α-receptor blocking activity was expressed as pA2 values. pA2 is defined as the negative logarithm of the concentration of an antagonist (in our case the test compounds) which leads to the fact that the dose of the agonist (in our case noradrenaline) has to be doubled in order to obtain the same effect of the agonist as that obtained without the antagonist present. Thus a high pA2 value indicates a high α-receptor blocking activity of a compound.
# cardiac β-receptors [2] = target: T1, cardiac β-receptors; experiment: Intrinsic beta mimetic activity on the heart (increase of heart rate), reserpinized anaesthetized cat; format: in vivo; details: i.v.; for Intrinsic activity Δbeats/min: increase of heart rate after drug; for Intrinsic activity % of isoprenaline: maximal heart rate response obtained with high doses of isoprenaline
# Description: as §1
SMILES,ED50 (vascular β-receptors) [µmol/kg],Kb (α-receptors) [nM],ED50 (cardiac β-receptors [1]) [µmol/kg],Intrinsic activity Δbeats/min (cardiac β-receptors [2]) [beats/min],Intrinsic activity % of isoprenaline (cardiac β-receptors [2])
"CCCc1ccccc1OCC(O)CNCCOc1ccc(O)cc1 (centres unmarked) [C3H7; pOH, 3-[2-(4-hydroxyphenoxy)-ethylamino]-1-o-propylphenoxy-propanol-2]",0.02,126,0.02,0,0 % of isoprenaline
"COc1ccc(OCCNCC(O)COc2ccccc2C)cc1OC (centres unmarked) [CH3; 3,4-diOCH3, 3-[2-(3,4-dimethoxyphenoxy)-ethylamino]-1-o-methylphenoxy-propanol-2]",5.8,1000,1.5,8,11 % of isoprenaline
"Cc1ccccc1OCC(O)CNCCOc1ccccc1O (centres unmarked) [CH3; 2-OH, 3-[2-(2-hydroxyphenoxy)-ethylamino]-1-o-methylphenoxy-propanol-2]",17,1000,0.6,30,29 % of isoprenaline
"COc1ccccc1OCCNCC(O)COc1ccccc1C (centres unmarked) [CH3; 2-OCH3, 3-[2-(2methoxyphenoxy)-ethylamino]-1-o-methylphenoxy-propanol-2]",11,100,4.5,8,8 % of isoprenaline

# The next lines start with results.
ED50 (vascular β-receptors) [µmol/kg],Kb (α-receptors) [nM],SMILES,ED50 (cardiac β-receptors [1]) [µmol/kg],Intrinsic activity Δbeats/min (cardiac β-receptors [2]) [beats/min],Intrinsic activity % of isoprenaline (cardiac β-receptors [2])
0.05,501,"OCc1ccccc1OCC(O)CNCCOc1ccc(O)cc1 (centres unmarked) [HOCH2; pOH, 3-[2-(4-hydroxyphenoxy)-ethylamino]-1-o-hydroxymethylphenoxy-propanol-2]",0.02,17,–
8.2,1580,"COc1ccc(OCCNCC(O)COc2ccccc2C)cc1 (centres unmarked) [CH3; 4-OCH3, 3-[2-(4-methoxyphenoxy)-ethylamino]-1-o-methylphenoxy-propanol-2]",0.5,17,22 % of isoprenaline
